Experiments:
[1] = biological target: T1, Ras (Homo sapiens, UniProt P01112, G12V); test: Proliferation assay (MTS) dose-response, Ras test cell line ("FHR V12"); assay type: cell-based; details: Ras test cell line "FHR V12" (Fig. 7)
T1 construct: expressed in transfected cells
Method: (§1) FDC-P1 Zellen (Dexter et al., 1980) wurden in IMDM Medium (BioWhittaker), versetzt mit 10% hitzeinaktiviertem fötalem Kälberserum (FCS), 2 mM Glutamin, 50 µM β-Mercaptoäthanol und 1% IL-3 angesetzt und bei 37°C in 5% CO2 inkubiert. 10^7 Zellen pro Transfektion wurden 5 min bei 1200 UpM bei Raumtemperatur abzentrifugiert (Heraeus Minifuge), einmal mit serumfreiem RPMI-1640 Medium gewaschen, und in 1 ml serumfreiem Medium suspendiert. 800 µl dieser Zellsuspension wurden in einer Elektroporationsküvette mit 20 µg Plasmid pGDV12ras gemischt und mit einem einzelnen Stromstoß von 280 V, 980 µF und 1000 ms elektroporiert (Progenetor II, Hoefer Instruments). Die Zellen wurden in 10 ml Kulturmedium mit 1% IL-3 verdünnt und bei 37°C, 5% CO2 inkubiert. Zwei Tage nach der Transfektion wurden die Zellen mit frischem Medium 3-fach verdünnt und 250 µg/ml G-418 zur Selektion auf Neomycin-resistenz zugesetzt. An den darauffolgenden Tagen wurde die G-418 Konzentration auf 500, 750 und 1000 µg/ml erhöht. Tote Zellen wurden mittels Zentrifugation durch einen Ficoll-Gradienten entfernt. Dazu wurden die Zellen zuerst mittels Zentrifugation (5 min, 1200 UpM) in einem geringen Volumen aufkonzentriert und in einem Zentrifugenröhrchen über Ficoll-Paque (Pharmacia) geschichtet. […]

[2] = biological target: T2, HER-2 (Homo sapiens, UniProt P04626, V659E); test: Proliferation assay (MTS) dose-response, HER-2 test cell line; assay type: cell-based; details: HER-2 test cell line (Fig. 7)
T2 construct: enthält nun die komplette kodierende Region der mutierten, konstitutiv aktiven Form HER2(V659E); expressed in transfected cells
Method: FDC-P1-Zellen (Dexter et al., 1980), die IL-3-abhängig wachsen, wurden mit Plasmid pAHygCMVHer2(V659E) folgendermaßen transfiziert: Etwa 1x10^7 Zellen wurden in IMDM-Medium (Bio-Whittaker) mit 10 µg Plasmid DNA gemischt und mit einem Elektroporator (Hoefer, Progenetor II) bei 980 µF, 280 V für 1000 ms elektroporiert. Die Zellen wurden in IMDM-Medium in Anwesenheit von 10% hitzeinaktiviertem fötalem Kälberserum, 50 µM β-Mercaptoethanol, Standardantibiotika, und 1% IL-3 bei 37°C unter 5% CO2 gehalten und durch Zugabe von 300 mg/l Hygromycin B (Boehringer Mannheim) selektioniert. Nach erfolgreicher Selektion wurden die Zellen langsam von IL-3 entwöhnt, der IL-3-unabhängig wachsende Zellpool anschließend in Methocel subkloniert. Einzelne Klone wurden gepickt und in Medium ohne IL-3 hochgezogen.
Einzelne Klone wurden in einem Fluoreszenz-aktivierten Zell-Sorter (Becton-Dickinson, FACSort) auf Oberflächenexpression von HER2 getestet, dabei wurde als primärer Antikörper ein gegen die extrazelluläre Domäne von HER2 gerichteter Maus-Antikörper verwendet (Oncogene Science, c-neu (Ab-2)), und als sekundärer Antikörper ein Fluorescein Isothiocyanat (FITC)-konjugierter anti-Maus IgG Antikörper (Dianova, Hamburg). Der Subklon mit der besten Oberflächenexpression von HER2(V659E), genannt FDCP/Her2-C42#16, wurde für das Screenen verwendet. […]

[3] = test system: HGF-R; test: Proliferation assay (MTS) dose-response, HGF-R test cell line ("TPRmet"); assay type: cell-based, human; details: HGF-R test cell line "TPRmet" (Fig. 7)
[4] = biological target: EGF-Rezeptor (Homo sapiens, UniProt P00533); test: c-fos promoter luciferase reporter assay in KB-B4 cells, EGF-induced; assay type: cell-based; details: 1 ng/ml EGF, 6 h (Fig. 6)
Method: Die humane epidermoide Karzinomzellinie KB (ATCC CCL 17), wurde mit Plasmid pBHfosluci folgendermaßen transfiziert: Etwa 1x10^6 Zellen pro 10 cm Platte wurden in DMEM-Medium (Bio-Whittaker) in Anwesenheit von 10% hitzeinaktiviertem fötalem Kälberserum in mehrere Platten ausgesät. Am nächsten Tag wurde 20 µg Plasmid-DNA mit Calcium-Phosphat präzipitiert und das Präzipitat langsam auf die Zellen getropft. Nach 4 Stunden wurden die Zellen für 2 min in 15% Glycerin inkubiert, gewaschen und dann in DMEM-Medium in Anwesenheit von 10% hitzeinaktiviertem fötalem Kälberserum und Standardantibiotika bei 37°C unter 5% CO2 gehalten. Die Zellen wurden durch Zugabe von 0.5 g/l G418 (GIBCO BRL) selektioniert. Einzelne G418-resistente Zellklone wurden hochgezogen und auf Induzierbarkeit der Luciferaseexpression durch Zugabe von HGF (Sigma) getestet. Ungefähr 10000 Zellen jedes Klons wurden in 6facher Ausfertigung in 200 µl pro Vertiefung in einer lichtundurchlässigen, gewebekulturbeschichteten Mikrotiterplatte mit 96 Vertiefungen (Microlite™, Dynatech Laboratories) ausgesät und über Nacht bei 37°C inkubiert. Jeweils drei Ansätze wurden mit 20 ng/ml HGF behandelt und weitere 6 h inkubiert. Anschließend wurde das Medium entfernt und die Zellen zweimal mit PBS gewaschen. […]

[5] = test system: H-ras^Val12; test: Detection of inhibition of Ras farnesylation (immunoprecipitation, SDS gel, Western blot) in FHRV12cc21 cells; assay type: cell-based, mouse; details: 5 µM, 48 h, 1% IL-3
Method: Nachweis der H-ras^Val12 Expression FHRV12cc21 und untransfizierte FDC-P1 Zellen wurden in IMDM Medium mit 10% FCS und 1% IL-3 gezüchtet. Zum Nachweis der Hemmung der posttranslationalen Modifikation von H-ras^Val12 durch Farnesylierung wurden die Zellen für 48 Stunden mit 5 µM des Protein-Farnesyltransferase-Inhibitors L-739.749 (Kohl et al., 1994) inkubiert. Die Zellen wurden mit PBS gewaschen und in PBSTDS (1% Triton X-100, 0.5% Natriumdesoxycholat, 0.1% Natriumdodecylsulfat in PBS) 5 min bei 4°C lysiert. Die Zellysate wurden durch Zentrifugation (20 min 14.000x g, 4°C) geklärt. Ras Proteine wurden durch Zusatz von 1 µg monoklonalen Ratten Antikörper Y13-238 (Oncogene Science) und Protein-G Plus / Protein-A Agarose (Oncogene Science) über Nacht bei 4°C immunpräzipitiert. Die Präzipitate wurden zweimal mit PBSTDS Puffer gewaschen und anschließend in SDS-Probenpuffer mit 3% β-Mercaptoethanol ausgenommen. Die Proteine wurden in einem 20%igen SDS-Polyacrylamidgel aufgetrennt, auf eine Immobilon-Membran (Millipore) transferiert und nach Absättigen der Membran mit 10% FCS, 1% Rinderserumalbumin, 1% Tween-20 in PBS, durch aufeinanderfolgende Inkubation mit einem Ras^Val12 spezifischen monoklonalen Antikörper (pan-Ras^Val12, Oncogene Science) und einem sekundären anti-Maus-IgG - Alkalische Phosphatase-Konjugat durch Färbereaktion mit NBT und BCIP (Promega) nachgewiesen. […]

[6] = test system: H-ras^Val12; test: Inhibition of IL-3 independent growth of H-ras^Val12 transfected FDC-P1 cells (FHRV12cc21), viability by MTS assay; assay type: cell-based, mouse; details: IL-3 free medium, relative absorption (Fig. 1)
Method: as §1

[7] = test system: H-ras^Val12; test: Inhibition of IL-3 independent growth of H-ras^Val12 transfected FDC-P1 cells (FHRV12cc21), DNA synthesis by [3H]thymidine incorporation; assay type: cell-based, mouse; details: IL-3 free medium (Fig. 2)
Method: as §1

Sequence of EGF-Rezeptor (P00533 25-1210): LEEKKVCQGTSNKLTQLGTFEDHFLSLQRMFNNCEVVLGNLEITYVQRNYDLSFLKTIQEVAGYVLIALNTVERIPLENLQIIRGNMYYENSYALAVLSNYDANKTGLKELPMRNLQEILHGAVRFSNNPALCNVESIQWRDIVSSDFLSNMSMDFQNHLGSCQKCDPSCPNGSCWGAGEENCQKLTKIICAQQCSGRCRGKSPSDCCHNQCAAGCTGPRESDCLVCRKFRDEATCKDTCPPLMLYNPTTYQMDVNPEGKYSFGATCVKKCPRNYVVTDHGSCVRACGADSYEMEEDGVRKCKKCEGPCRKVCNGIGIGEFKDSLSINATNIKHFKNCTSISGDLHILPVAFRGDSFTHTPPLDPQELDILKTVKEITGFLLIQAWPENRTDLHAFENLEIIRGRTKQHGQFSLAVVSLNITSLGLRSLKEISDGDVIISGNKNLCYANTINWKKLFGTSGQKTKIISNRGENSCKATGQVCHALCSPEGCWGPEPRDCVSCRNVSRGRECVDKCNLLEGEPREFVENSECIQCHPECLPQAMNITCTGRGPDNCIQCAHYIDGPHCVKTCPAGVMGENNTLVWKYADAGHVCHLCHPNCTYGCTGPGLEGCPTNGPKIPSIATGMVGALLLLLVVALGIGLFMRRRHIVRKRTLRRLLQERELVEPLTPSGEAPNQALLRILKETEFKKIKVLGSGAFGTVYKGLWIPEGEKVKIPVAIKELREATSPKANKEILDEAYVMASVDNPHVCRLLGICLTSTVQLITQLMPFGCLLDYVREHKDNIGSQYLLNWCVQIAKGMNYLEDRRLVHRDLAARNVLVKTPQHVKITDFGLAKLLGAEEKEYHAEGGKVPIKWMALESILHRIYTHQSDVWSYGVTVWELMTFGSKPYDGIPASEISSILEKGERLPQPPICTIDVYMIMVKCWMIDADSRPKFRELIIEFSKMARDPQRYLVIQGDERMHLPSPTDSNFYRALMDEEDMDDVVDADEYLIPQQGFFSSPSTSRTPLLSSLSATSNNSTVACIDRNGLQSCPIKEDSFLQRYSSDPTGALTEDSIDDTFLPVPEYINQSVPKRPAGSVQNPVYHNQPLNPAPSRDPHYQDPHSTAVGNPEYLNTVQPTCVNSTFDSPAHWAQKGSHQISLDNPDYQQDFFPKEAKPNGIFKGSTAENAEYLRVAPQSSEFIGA
T2 sequence (P04626 23-1255 V659E): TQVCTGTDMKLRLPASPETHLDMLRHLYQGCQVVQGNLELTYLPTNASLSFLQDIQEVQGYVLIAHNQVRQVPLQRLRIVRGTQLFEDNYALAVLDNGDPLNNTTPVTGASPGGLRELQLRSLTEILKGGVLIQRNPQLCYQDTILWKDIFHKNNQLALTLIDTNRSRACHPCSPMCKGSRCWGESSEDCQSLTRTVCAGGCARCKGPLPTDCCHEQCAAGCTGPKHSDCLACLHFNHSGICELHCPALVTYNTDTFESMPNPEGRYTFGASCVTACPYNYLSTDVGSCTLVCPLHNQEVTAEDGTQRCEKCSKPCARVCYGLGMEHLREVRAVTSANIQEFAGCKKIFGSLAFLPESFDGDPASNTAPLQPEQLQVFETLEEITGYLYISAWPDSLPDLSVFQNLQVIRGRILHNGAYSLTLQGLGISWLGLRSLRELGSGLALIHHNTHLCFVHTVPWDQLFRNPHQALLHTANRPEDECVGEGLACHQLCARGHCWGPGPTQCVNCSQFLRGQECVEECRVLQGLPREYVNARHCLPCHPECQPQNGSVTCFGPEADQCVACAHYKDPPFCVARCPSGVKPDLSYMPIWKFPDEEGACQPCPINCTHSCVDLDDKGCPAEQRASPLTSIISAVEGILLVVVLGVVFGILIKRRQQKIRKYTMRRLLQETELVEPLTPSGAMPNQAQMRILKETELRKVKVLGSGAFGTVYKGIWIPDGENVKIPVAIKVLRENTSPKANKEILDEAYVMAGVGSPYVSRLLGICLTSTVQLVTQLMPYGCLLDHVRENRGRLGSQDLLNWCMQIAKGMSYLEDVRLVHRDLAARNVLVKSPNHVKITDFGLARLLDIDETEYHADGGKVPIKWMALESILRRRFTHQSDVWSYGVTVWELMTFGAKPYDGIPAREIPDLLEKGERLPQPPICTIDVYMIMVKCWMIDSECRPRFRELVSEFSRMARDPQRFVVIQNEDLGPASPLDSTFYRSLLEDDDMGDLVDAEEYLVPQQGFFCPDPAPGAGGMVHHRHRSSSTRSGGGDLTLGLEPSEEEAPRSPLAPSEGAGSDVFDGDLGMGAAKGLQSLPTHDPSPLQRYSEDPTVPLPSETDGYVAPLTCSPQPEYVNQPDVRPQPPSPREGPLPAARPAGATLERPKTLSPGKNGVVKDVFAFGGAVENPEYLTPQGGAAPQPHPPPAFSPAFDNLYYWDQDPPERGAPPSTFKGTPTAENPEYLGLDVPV
T1 sequence (P01112 1-186 G12V): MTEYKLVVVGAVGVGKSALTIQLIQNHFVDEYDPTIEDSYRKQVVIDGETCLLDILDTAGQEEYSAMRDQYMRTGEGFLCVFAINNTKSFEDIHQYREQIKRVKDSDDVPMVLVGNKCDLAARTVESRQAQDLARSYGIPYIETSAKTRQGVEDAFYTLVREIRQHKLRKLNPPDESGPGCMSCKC

Clc1cccc(Nc2ncnc3cnc(NC4CC4)nc23)c1 [4-[(3-Chlorphenyl)amino]-6-(cyclopropylamino)-pyrimido-[5,4-d]pyrimidin]
Konzentration, bei der Effekte auf die Proliferation der Zellen zu messen sind, relative to IC50 on the EGF-dependent cell line [1]: ≥ 100 fach | Konzentration, bei der Effekte auf die Proliferation der Zellen zu messen sind, relative to IC50 on the EGF-dependent cell line [2]: ≥ 100 fach | Konzentration, bei der Effekte auf die Proliferation der Zellen zu messen sind, relative to IC50 on the EGF-dependent cell line [3]: ≥ 100 fach

COc1cc2ncnc(Nc3cccc(C)c3)c2cc1OC [6,7-Dimethoxy-4-(3-methylphenylamino)chinazolin]
Inhibierung der Luciferase-Induktion durch EGF [4]: inhibitorische Wirkung

CC[C@H](C)[C@@H](CO[C@@H](Cc1ccccc1)C(=O)N[C@@H](CCS(C)(=O)=O)C(=O)OC)NC[C@@H](N)CS [L-739.749, 2(S)-{2(S)-[2(R)-Amino-3-mercapto]propylamino-3(S)-methyl}pentyloxy-3-phenylpropionylmethioninsulfonmethyl ester]
Ras-Protein in der unmodifizierten (nicht farnesylierten) Form [5]: > 50% | Hemmung der H-ras^Val12 abhängigen Proliferation (Viabilität) [6]: Hemmung der H-ras^Val12 abhängigen Proliferation (Viabilität) | Hemmung der H-ras^Val12 abhängigen Proliferation (DNA-Synthese) [7]: Hemmung der H-ras^Val12 abhängigen Proliferation (DNA-Synthese)

— patent EP0816848A1, “Method for comparative screening of substances with pharmacological activity” (BOEHRINGER INGELHEIM INTERNATIONAL GmbH, priority 1996, dated 1998)
